# Source: ChEMBL document CHEMBL1145862, “Identification of "latent hits" in compound screening collections” (J Med Chem, 2003)
# How the values were obtained:
# Estrogen receptor = biological target: T1, Estrogen receptor (Homo sapiens, UniProt P03372); assay: Transcriptional agonist activity in Chinese hamster ovary cells expressing human Estrogen Receptor alpha; assay type: functional, cell-based
# T1 sequence (P03372 whole entry): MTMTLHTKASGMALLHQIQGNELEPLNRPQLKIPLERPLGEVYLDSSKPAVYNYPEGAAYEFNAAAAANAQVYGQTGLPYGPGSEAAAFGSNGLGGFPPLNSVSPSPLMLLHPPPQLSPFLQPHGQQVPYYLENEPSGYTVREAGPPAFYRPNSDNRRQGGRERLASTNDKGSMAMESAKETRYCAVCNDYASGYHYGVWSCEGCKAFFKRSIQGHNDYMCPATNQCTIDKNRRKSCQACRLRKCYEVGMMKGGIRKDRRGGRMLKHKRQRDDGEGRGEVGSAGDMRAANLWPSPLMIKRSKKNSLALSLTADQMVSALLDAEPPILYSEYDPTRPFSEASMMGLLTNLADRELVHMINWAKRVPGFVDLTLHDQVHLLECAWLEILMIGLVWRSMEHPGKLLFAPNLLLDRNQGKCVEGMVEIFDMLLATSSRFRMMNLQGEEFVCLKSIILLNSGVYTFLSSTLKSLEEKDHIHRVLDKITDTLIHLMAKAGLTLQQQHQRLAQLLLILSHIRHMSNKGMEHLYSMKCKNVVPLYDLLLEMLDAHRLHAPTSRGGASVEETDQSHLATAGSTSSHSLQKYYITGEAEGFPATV
# [1] = biological target: T2, Estrogen receptor (Homo sapiens) (UniProt P03372); assay: Percent change in 17-beta-estradiol mediated transcriptional activation in CHO cells expressing human estrogen receptor alpha at 10e-6 M; assay type: functional, cell-based
# T2 sequence (whole entry): T1 sequence (P03372 whole entry)
# [2] = biological target: T2, Estrogen receptor (Homo sapiens); conditions: CHO
# [3] = biological target: T2, Estrogen receptor (Homo sapiens); assay: Relative binding affinity for human estrogen receptor alpha expressed in CHO cells compared to Diethylstilbestrol Methyl Ether; assay type: cell-based
# [4] = biological target: T2, Estrogen receptor (Homo sapiens); assay: Relative Binding Affinity for human estrogen receptor alpha expressed in CHO cells compared to Diethylstilbestrol Dimethyl Ether; assay type: cell-based
SMILES,EC50 (Estrogen receptor) [nM],also measured
Oc1ccc(-c2cccc(-c3ccc(O)cc3)c2)cc1,800,–
CC1C(=O)c2cc(O)ccc2OC1c1ccc(O)cc1 (configuration not stated),4,–
COc1ccc(C2Oc3ccc(O)cc3C(=O)C2C)cc1 (configuration not stated),> 10000,HTS data [1]: 67
COc1ccc2c(c1)CC[C@@H]1[C@@H]2CC[C@]2(C)[C@@H](OC)CC[C@@H]12,–,HTS data [2]: 0
CC/C(=C(/CC)c1ccc(OC)cc1)c1ccc(O)cc1,–,RBA data [3]: 1.31
Oc1ccc(-c2ccc(-c3ccc(O)cc3)cc2)cc1,1200,–
Oc1ccc(-c2cc(-c3ccc(O)cc3)cc(-c3ccc(O)cc3)c2)cc1,80,–
CC/C(=C(/CC)c1ccc(OC)cc1)c1ccc(OC)cc1,–,RBA data [4]: -1.25
COc1ccc2c(c1)CC[C@@H]1[C@@H]2CC[C@]2(C)[C@@H](O)CC[C@@H]12,–,HTS data [2]: 76
COc1ccc(-c2cccc(-c3ccc(OC)cc3)c2)cc1,> 10000,HTS data [1]: 7
